Source: patent EP0326331B1, “Substituted quinolines and cinnolines” (Dow AgroSciences LLC, priority 1988, dated 1989)
Where two headings read alike, the source gives them in different places.

What was measured:
Format in all cases: in vivo
[1] = test system: southern armyworm (Spodopetra eridania Cramer); experiment: Mite/insect screen, SAW; settings: Spodoptera eridania, read-out: SAW RESULTS %
How it was run: (§1)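 Foliar spray to runoff (10 psi), 1 h drying; aqueous dilutions from acetone/alcohol emulsifier stock. Mortality (%) after standard exposure.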

[2] = test system: Venturia inaequalis (apple scab); experiment: Test 1 greenhouse foliar spray screen, apple scab on apple seedling; settings: for pest or weed control at 400 ppm: Venturia inaequalis, Test 1, foliar spray on apple seedling, disease control rating at 400 ppm / 100 ppm, read-out: APPL SCAB; for APPL SCAB: disease control rating, foliar spray on apple seedling, 400 ppm (+++ at 100 ppm)
[3] = test system: Botrytis cinerea (gray mold); experiment: Test 1 greenhouse foliar spray screen, gray mold on grape berries; settings: for pest or weed control at 400 ppm: Botrytis cinerea, foliar, Test 1, spray on grape berries, disease control rating at 400 ppm / 100 ppm; for GRAY MOLD: disease control rating, spray on grape berries, 400 ppm (+++ at 100 ppm)
[4] = test system: Septoria tritici (leaf blotch); experiment: Test 1 greenhouse foliar spray screen, leaf blotch on wheat; settings: for pest or weed control at 400 ppm: Zymoseptoria tritici, Test 1, foliar spray on wheat, disease control rating at 400 ppm / 100 ppm, read-out: LEAF BLOT; for LEAF BLOT: disease control rating, foliar spray on wheat, 400 ppm (+++ at 100 ppm)
[5] = test system: Twospotted spider mites (Tetranychus urticae Koch); experiment: Mite/insect screen, SM; settings: for mortality at 200 ppm / mortality at 400 ppm: Tetranychus urticae, read-out: SM RESULTS %
How it was run: as §1

[6] = test system: Pyricularia oryzae (rice blast); experiment: whole plant or invertebrate; settings: for pest or weed control at 400 ppm: Pyricularia oryzae, foliar, read-out: RICE BLAST, Test 1, foliar spray on rice, disease control rating at 400 ppm / 100 ppm; for RICE BLAST: disease control rating, foliar spray on rice, 400 ppm (+++ at 100 ppm)
[7] = test system: Erysiphe graminis tritici (powdery mildew); experiment: Test 1 greenhouse foliar spray screen, powdery mildew on wheat; settings: for pest or weed control at 400 ppm: Blumeria graminis, foliar, Test 1, foliar spray on wheat, disease control rating at 400 ppm / 100 ppm, read-out: POWD MDEW; for POWD MDEW: disease control rating, foliar spray on wheat, 400 ppm (+++ at 100 ppm)
[8] = test system: melon aphids (Aphis gossypii Glover); experiment: Mite/insect screen, MA; settings: Aphis gossypii, read-out: MA RESULTS %
How it was run: as §1

[9] = test system: Cercospora beticola (leaf spot); experiment: Test 1 greenhouse foliar spray screen, leaf spot on sugar beet; settings: for pest or weed control at 400 ppm: Cercospora beticola, Test 1, foliar spray on sugar beet, disease control rating at 400 ppm / 100 ppm; for LEAF SPOT: disease control rating, foliar spray on sugar beet, 400 ppm (+++ at 100 ppm)
[10] = test system: Pseudoperonospora cubensis (downy mildew); experiment: Test 1 greenhouse foliar spray screen, downy mildew on squash; settings: for pest or weed control at 400 ppm: Pseudoperonospora cubensis, foliar, Test 1, foliar spray on squash, disease control rating at 400 ppm / 100 ppm, read-out: DOWN MDEW; for DOWN MDEW: disease control rating, foliar spray on squash, 400 ppm (+++ at 100 ppm)
corn rootworm = experiment: Mite/insect screen, CRW; settings: read-out: CRW RESULTS %
How it was run: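 Following dissolution in equal parts acetone and alcohol with 23 g/L and 13 g/L emulsifier blends and dilution with water, test solutions were scored for percent mortality at the end of standard exposures.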

[11] = test system: Puccinia recondita tritici (leaf rust); experiment: Test 1 greenhouse foliar spray screen, leaf rust on wheat; settings: for pest or weed control at 400 ppm: Puccinia recondita, foliar, Test 1, foliar spray on wheat, disease control rating at 400 ppm / 100 ppm; for LEAF RUST: disease control rating, foliar spray on wheat, 400 ppm (+++ at 100 ppm)
[12] = foliar, percent mortality, rate 200 ppm, foliar spray on squash
[13] = foliar, percent mortality, rate 400 ppm, foliar spray on squash
[14] = summary statement in the description
[15] = percent mortality, CRW rate 12.00 ppm
[16] = percent mortality, CRW rate 24.00 ppm
[17] = percent mortality, SAW, SM & MA RATE 200 PPM
[18] = percent mortality, SAW, SM & MA RATE 400 PPM
[19] = percent mortality, CRW RATE 12.00 PPM

Structure (SMILES)	mortality at 200 ppm [1, 12] [%]	mortality at 400 ppm [1, 13] [%]	pest or weed control at 400 ppm [2] [%]	pest or weed control at 400 ppm [3] [%]	pest or weed control at 400 ppm [4] [%]	mortality at 200 ppm [5, 12] [%]	mortality at 400 ppm [5, 13] [%]	pest or weed control at 400 ppm [6] [%]	pest or weed control at 400 ppm [7] [%]	mortality at 200 ppm [8, 12] [%]	mortality at 400 ppm [8, 13] [%]	mortality at 12 ppm (corn rootworm; [15]) [%]	APPL SCAB [2]	GRAY MOLD [3]	LEAF BLOT [4]	RICE BLAST [6]	POWD MDEW [7]	LEAF SPOT [9]	DOWN MDEW [10]	LEAF RUST [11]	also measured
Fc1cccc2c(OCCc3ccc4ccccc4c3)ccnc12 [Example 247, 8-fluoro-4-[2-(2-naphthyl)ethoxy]quinoline]	20	50	0 to 19	0 to 19	90 to 100	90	0	90 to 100	90 to 100	0	0	0	–	–	–	–	–	–	–	–	activity as miticides [5, 14]: particularly excellent activity; activity against rice blast [6, 14]: particularly excellent activity; pest or weed control at 400 ppm [9]: 0 to 19%; pest or weed control at 400 ppm [10]: 20 to 89%; mortality at 24 ppm (corn rootworm; [16]): 0%; pest or weed control at 400 ppm [11]: 90 to 100%
CC(Cc1cccs1)Nc1ccnc2c(F)cccc12 (stereo not drawn) [Example 170, 8-fluoro-N-[1-methyl-2-(2-thienyl)ethyl]-4-quinolinamine]	0	–	–	–	–	0	–	–	–	0	–	0	- (0-19% control at 400 ppm)	- (0-19% control at 400 ppm)	- (0-19% control at 400 ppm)	+ (20-89% control at 400 ppm)	+ (20-89% control at 400 ppm)	- (0-19% control at 400 ppm)	+ (20-89% control at 400 ppm)	++ (90-100% control at 400 ppm)	–
Cc1ccc(CCNc2ccnc3cc(Cl)ccc23)cc1 [Example 50, 7-chloro-N-[2-(4-methylphenyl)ethyl]-4-quinolinamine]	–	–	–	–	–	–	–	–	–	–	–	–	- (0-19% control at 400 ppm)	- (0-19% control at 400 ppm)	- (0-19% control at 400 ppm)	- (0-19% control at 400 ppm)	+++ (90-100% control at 100 ppm)	- (0-19% control at 400 ppm)	+++ (90-100% control at 100 ppm)	++ (90-100% control at 400 ppm)	mortality at 200 ppm [1, 17]: 0%; mortality at 400 ppm [1, 18]: 0%; mortality at 200 ppm [5, 17]: 0%; mortality at 400 ppm [5, 18]: 0%; mortality at 200 ppm [8, 17]: 0%; mortality at 400 ppm [8, 18]: 0%; mortality at 12 ppm (corn rootworm; [19]): 0%; mortality at 24 ppm (corn rootworm; percent mortality, CRW RATE 24.00 PPM): 0%
Clc1ccc2c(OCCc3ccccc3)ccnc2c1 [Example 202, 7-chloro-4-(2-phenylethoxy)quinoline]	0	0	0 to 19	0 to 19	20 to 89	0	0	20 to 89	90 to 100	0	0	0	–	–	–	–	–	–	–	–	pest or weed control at 400 ppm [9]: 20 to 89%; pest or weed control at 400 ppm [10]: 90 to 100%; mortality at 24 ppm (corn rootworm; [16]): 0%; pest or weed control at 400 ppm [11]: 90 to 100%
Fc1cccc(CCNc2ccnc3c(F)cccc23)c1 [Example 66, 8-fluoro-N-[2-(3-fluorophenyl)ethyl]-4-quinolinamine]	–	–	–	–	–	–	–	–	–	–	–	–	- (0-19% control at 400 ppm)	- (0-19% control at 400 ppm)	+ (20-89% control at 400 ppm)	++ (90-100% control at 400 ppm)	+ (20-89% control at 400 ppm)	+++ (90-100% control at 100 ppm)	+++ (90-100% control at 100 ppm)	+++ (90-100% control at 100 ppm)	mortality at 200 ppm [1, 17]: 0%; mortality at 200 ppm [5, 17]: 0%; mortality at 200 ppm [8, 17]: 0%; mortality at 12 ppm (corn rootworm; [19]): 0%
COc1ccccc1CCNc1ccnc2c(F)cccc12 [Example 68, 8-fluoro-N-[2-(2-methoxyphenyl)ethyl]-4-quinolinamine]	–	–	–	–	–	–	–	–	–	–	–	–	- (0-19% control at 400 ppm)	- (0-19% control at 400 ppm)	+++ (90-100% control at 100 ppm)	+ (20-89% control at 400 ppm)	+ (20-89% control at 400 ppm)	- (0-19% control at 400 ppm)	++ (90-100% control at 400 ppm)	+++ (90-100% control at 100 ppm)	mortality at 200 ppm [1, 17]: 0%; mortality at 200 ppm [5, 17]: 0%; mortality at 200 ppm [8, 17]: 0%; mortality at 12 ppm (corn rootworm; [19]): 0%
Clc1cnc2ccccc2c1NCC(Cl)c1ccccc1 (stereo not drawn) [Example 69, 3-chloro-N-(2-chloro-2-phenylethyl)-4-quinolinamine]	–	–	–	–	–	–	–	–	–	–	–	–	- (0-19% control at 400 ppm)	- (0-19% control at 400 ppm)	- (0-19% control at 400 ppm)	+ (20-89% control at 400 ppm)	+ (20-89% control at 400 ppm)	- (0-19% control at 400 ppm)	+++ (90-100% control at 100 ppm)	+ (20-89% control at 400 ppm)	mortality at 200 ppm [1]: 0%; mortality at 200 ppm [5]: 0%; mortality at 200 ppm [8]: 0%; mortality at 12 ppm (corn rootworm): 0%
CC(Cc1ccccc1)Oc1ccnc2ccccc12 (stereo not drawn) [Example 213, 4-(1-methyl-2-phenylethoxy)quinoline]	0	–	20 to 89	0 to 19	20 to 89	0	–	90 to 100	20 to 89	0	–	0	–	–	–	–	–	–	–	–	pest or weed control at 400 ppm [9]: 0 to 19%; pest or weed control at 400 ppm [10]: 90 to 100%; pest or weed control at 400 ppm [11]: 90 to 100%
Fc1ccc2nccc(NCCC3=CCCCC3)c2c1 [Example 168, N-[2-(1-cyclohexenyl)ethyl]-6-fluoro-4-quinolinamine]	0	0	–	–	–	0	0	–	–	0	0	0	- (0-19% control at 400 ppm)	- (0-19% control at 400 ppm)	- (0-19% control at 400 ppm)	++ (90-100% control at 400 ppm)	+ (20-89% control at 400 ppm)	- (0-19% control at 400 ppm)	+++ (90-100% control at 100 ppm)	++ (90-100% control at 400 ppm)	mortality at 24 ppm (corn rootworm; [16]): 0%
